Measurements taken from US8541461B2 (Astex Therapeutics Limited, priority 2005, dated 2013).

Target: T1, PKB-PIF fusion protein (protein kinase B) (Homo sapiens, UniProt P31751)
T1 construct: PIF (fusion partner); made in house
Experiment: Measurement of PKB kinase inhibitory activity (IC50)
Format: biochemical
Details: 0.6 nM enzyme, 30 μM ATP/γ33P-ATP, 25 μM AKTide-2T substrate; read-out: PKB IC50
Experimental: The reaction is allowed to proceed for 20 minutes before addition of excess orthophosphoric acid to quench activity. The reaction mixture is transferred to a phosphocellulose filter plate where the peptide binds and the unused ATP is washed away. After washing, scintillant is added and the incorporated activity measured by scintillation counting.

T1 sequence (P31751 with tags, fused parts or gaps limits assumed): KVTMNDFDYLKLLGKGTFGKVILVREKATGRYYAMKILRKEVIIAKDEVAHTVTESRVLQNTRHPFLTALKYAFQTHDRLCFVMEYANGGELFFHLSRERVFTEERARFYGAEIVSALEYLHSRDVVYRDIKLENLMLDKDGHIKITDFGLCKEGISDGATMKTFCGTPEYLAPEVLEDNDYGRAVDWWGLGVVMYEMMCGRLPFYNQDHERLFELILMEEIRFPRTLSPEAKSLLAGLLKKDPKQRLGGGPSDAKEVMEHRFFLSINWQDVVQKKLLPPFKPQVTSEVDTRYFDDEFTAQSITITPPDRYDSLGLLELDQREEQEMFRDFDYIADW

| Compound | IC50 [nM] |
| --- | --- |
| CNCC(c1ccc(Cl)cc1)c1ccc(-c2cn[nH]c2)cc1 (stereo in doubt) [Example 22, {2-(4-Chloro-phenyl)-2-[4-(1H-pyrazol-4-yl)-phenyl]-ethyl}-methyl-amine (R)] | < 1000 |
| N#CC(Cc1ccccc1)c1cccc(-c2cn[nH]c2)c1 (stereo not drawn) [Example 2, 3-Phenyl-2-[3-(1H-pyrazol-4-yl)-phenyl]-propionitrile] | < 5000 |
| Cc1n[nH]c(C)c1-c1ccc(C(CN)c2ccccc2)cc1 (stereo not drawn) [Example 3, 2-[4-(3,5-Dimethyl-1H-pyrazol-4-yl)-phenyl]-2-phenyl-ethylamine] | < 5000 |
| NCC(Cc1ccccc1)c1cccc(-c2cn[nH]c2)c1 (stereo not drawn) [Example 6, 3-Phenyl-2-[3-(1H-pyrazol-4-yl)-phenyl]-propylamine] | < 5000 |
| CNCCC(c1ccc(Cl)cc1)c1ccc(-c2cn[nH]c2)cc1 (stereo not drawn) [Example 8, {3-(4-Chloro-phenyl)-3-[4-(1H-pyrazol-4-yl)-phenyl]-propyl}-methyl-amine] | < 1000 |
| CNCCC(c1ccc(-c2cn[nH]c2)cc1)c1ccc(F)c(F)c1 (stereo not drawn) [Example 9, {3-(3,4-Difluoro-phenyl)-3-[4-(1H-pyrazol-4-yl)-phenyl]-propyl}-methyl-amine] | < 1000 |
| CNCCC(c1ccc(-c2cn[nH]c2)cc1)c1cccc(Cl)c1 (stereo not drawn) [Example 10, {3-(3-Chloro-phenyl)-3-[4-(1H-pyrazol-4-yl)-phenyl]-propyl}-methyl-amine] | < 1000 |
| NC(=O)CC(c1ccc(Cl)cc1)c1ccc(-c2cn[nH]c2)cc1 (stereo not drawn) [Example 11, 3-(4-Chloro-phenyl)-3-[4-(1H-pyrazol-4-yl)-phenyl]-propionamide] | < 5000 |
| NCCC(c1ccc(Cl)cc1)c1ccc(-c2cn[nH]c2)cc1 (stereo not drawn) [Example 12, 3-(4-Chloro-phenyl)-3-[4-(1H-pyrazol-4-yl)-phenyl]-propylamine] | < 1000 |
| NCCC(c1ccc(-c2cn[nH]c2)cc1)c1ccc(Cl)c(Cl)c1 (stereo not drawn) [Example 13, 3-(3,4-Dichloro-phenyl)-3-[4-(1H-pyrazol-4-yl)-phenyl]-propylamine] | < 1000 |
| Clc1ccc(C2(c3ccc(-c4cn[nH]c4)cc3)CCNCC2)cc1 [Example 14, 4-(4-Chloro-phenyl)-4-[4-(1H-pyrazol-4-yl)-phenyl]-piperidine] | < 1000 |
| COc1ccc(C2(c3ccc(-c4cn[nH]c4)cc3)CCNCC2)cc1 [Example 15, 4-(4-Methoxy-phenyl)-4-[4-(1H-pyrazol-4-yl)-phenyl]-piperidine] | < 1000 |
| CN1CCC(c2ccc(Cl)cc2)(c2ccc(-c3cn[nH]c3)cc2)CC1 [Example 16, 4-(4-Chloro-phenyl)-1-methyl-4-[4-(1H-pyrazol-4-yl)-phenyl]-piperidine] | < 1000 |
| c1ccc(C2(c3ccc(-c4cn[nH]c4)cc3)CCNCC2)cc1 [Example 17, 4-Phenyl-4-[4-(1H-pyrazol-4-yl)-phenyl]-piperidine] | < 1000 |
| Cc1n[nH]c(C)c1-c1ccc(C2(c3ccccc3)CCNCC2)cc1 [Example 18, 4-[4-(3,5-Dimethyl-1H-pyrazol-4-yl)-phenyl]-4-phenyl-piperidine] | < 5000 |
| CN(C)CCC(c1ccc(-c2cn[nH]c2)cc1)c1ccccn1 (stereo not drawn) [Example 19, Dimethyl-{3-[4-(1H-pyrazol-4-yl)-phenyl]-3-pyridin-2-yl-propyl}-amine] | < 5000 |
| CN(C)CC(c1ccc(Cl)cc1)c1ccc(-c2cn[nH]c2)cc1 (stereo not drawn) [Example 20, {2-(4-Chloro-phenyl)-2-[4-(1H-pyrazol-4-yl)-phenyl]-ethyl}-dimethyl-amine] | < 1000 |
| CNCC(c1ccc(Cl)cc1)c1ccc(-c2cn[nH]c2)cc1 (stereo not drawn) [Example 21, {2-(4-Chloro-phenyl)-2-[4-(1H-pyrazol-4-yl)-phenyl]-ethyl}-methyl-amine] | < 1000 |
| Clc1ccc(C(CN2CCOCC2)c2ccc(-c3cn[nH]c3)cc2)cc1 (stereo not drawn) [Example 24, 4-{2-(4-Chloro-phenyl)-2-[4-(1H-pyrazol-4-yl)-phenyl]-ethyl}-morpholine] | < 5000 |
| Clc1ccc(C(CN2CCCC2)c2ccc(-c3cn[nH]c3)cc2)cc1 (stereo not drawn) [Example 25, 4-{4-[1-(4-Chloro-phenyl)-2-pyrrolidin-1-yl-ethyl]-phenyl}-1H-pyrazole] | < 1000 |
| CC(C)NCC(c1ccc(Cl)cc1)c1ccc(-c2cn[nH]c2)cc1 (stereo not drawn) [Example 26, {2-(4-Chloro-phenyl)-2-[4-(1H-pyrazol-4-yl)-phenyl]-ethyl}-isopropyl-amine] | < 1000 |
| CN(C)CC(c1ccccc1)c1ccc(-c2cn[nH]c2)cc1 (stereo not drawn) [Example 27, Dimethyl-{2-phenyl-2-[4-(1H-pyrazol-4-yl)-phenyl]-ethyl}-amine] | < 1000 |
| CN(C)CC(c1ccc(-c2cn[nH]c2)cc1)c1ccc(-c2cn[nH]c2)cc1 [Example 28, {2,2-Bis-[4-(1H-pyrazol-4-yl)-phenyl]-ethyl}-dimethyl-amine] | < 1000 |
| CNCC(c1ccc(-c2cn[nH]c2)cc1)c1ccc(-c2cn[nH]c2)cc1 [Example 29, {2,2-Bis-[4-(1H-pyrazol-4-yl)-phenyl]-ethyl}-methyl-amine] | < 1000 |

| Compound | IC50 [nM] |
| --- | --- |
| NC(=O)C(c1ccc(Cl)cc1)c1ccc(-c2cn[nH]c2)cc1 (stereo not drawn) [Example 32, 2-(4-Chloro-phenyl)-2-[4-(1H-pyrazol-4-yl)-phenyl]-acetamide] | < 5000 |
| Clc1ccc(C(CN2CCNCC2)c2ccc(-c3cn[nH]c3)cc2)cc1 (stereo not drawn) [Example 33, 1-{2-(4-Chloro-phenyl)-2-[4-(1H-pyrazol-4-yl)-phenyl]-ethyl}-piperazine] | < 1000 |
| Clc1ccc(C(CN2CCCCC2)c2ccc(-c3cn[nH]c3)cc2)cc1 (stereo not drawn) [Example 34, 1-{2-(4-Chloro-phenyl)-2-[4-(1H-pyrazol-4-yl)-phenyl]-ethyl}-piperidine] | < 1000 |
| Clc1ccc(C(CN2CCC2)c2ccc(-c3cn[nH]c3)cc2)cc1 (stereo not drawn) [Example 35, 4-{4-[2-Azetidin-1-yl-1-(4-chloro-phenyl)-ethyl]-phenyl}-1H-pyrazole] | < 1000 |
| NC(Cc1ccc(-c2cn[nH]c2)cc1)c1ccccc1 (stereo not drawn) [Example 36, 1-Phenyl-2-[4-(1H-pyrazol-4-yl)-phenyl]-ethylamine] | < 5000 |
| CNC(=O)C(c1ccc(Cl)cc1)c1ccc(-c2cn[nH]c2)cc1 (stereo not drawn) [Example 40, 2-(4-Chloro-phenyl)-N-methyl-2-[4-(1H-pyrazol-4-yl)-phenyl]-acetamide] | < 50000 |
| CNC(=O)C(c1ccc(-c2cn[nH]c2)cc1)c1ccc(-c2cn[nH]c2)cc1 [Example 41, N-Methyl-2,2-bis-[4-(1H-pyrazol-4-yl)-phenyl]-acetamide] | < 50000 |
| Clc1ccc(C(CCN2CCCC2)c2ccc(-c3cn[nH]c3)cc2)cc1 (stereo not drawn) [Example 50, 4-{4-[1-(4-Chloro-phenyl)-3-pyrrolidin-1-yl-propyl]-phenyl}-1H-pyrazole] | < 1000 |
| Clc1ccc(C(CCN2CCC2)c2ccc(-c3cn[nH]c3)cc2)cc1 (stereo not drawn) [Example 51, 4-{4-[3-Azetidin-1-yl-1-(4-chloro-phenyl)-propyl]-phenyl}-1H-pyrazole] | < 1000 |
| CNCCC(c1ccc(-c2cn[nH]c2)cc1)c1ccc(N(C)C)cc1 (stereo not drawn) [Example 53, Dimethyl-(4-{3-methylamino-1-[4-(1H-pyrazol-4-yl)-phenyl]-propyl}-phenyl)-amine] | < 5000 |
| N#Cc1n[nH]cc1-c1ccc(C2(c3ccc(Cl)cc3)CCNCC2)cc1 [Example 55, 4-{4-[4-(4-Chloro-phenyl)-piperidin-4-yl]-phenyl}-1H-pyrazole-3-carbonitrile] | < 5000 |
| NCCC(c1ccc(Oc2ccccc2)cc1)c1ccc(-c2cn[nH]c2)cc1 (stereo not drawn) [Example 56, 3-(4-Phenoxy-phenyl)-3-[4-(1H-pyrazol-4-yl)-phenyl]-propylamine] | < 1000 |
| Clc1ccc(C(c2ccc(-c3cn[nH]c3)cc2)N2CCNCC2)cc1 (stereo not drawn) [Example 57, 1-{(4-Chloro-phenyl)-[4-(1H-pyrazol-4-yl)-phenyl]-methyl}-piperazine] | < 1000 |
| CN1CCCN(C(c2ccccc2)c2ccc(-c3cn[nH]c3)cc2)CC1 (stereo not drawn) [Example 58, 1-Methyl-4-{phenyl-[4-(1H-pyrazol-4-yl)-phenyl]-methyl}-[1,4]diazepane] | < 5000 |
| Clc1ccc(C(CCn2ccnc2)c2ccc(-c3cn[nH]c3)cc2)cc1 (stereo not drawn) [Example 61, 4-{4-[1-(4-Chloro-phenyl)-3-imidazol-1-yl-propyl]-phenyl}-1H-pyrazole] | < 1000 |
| c1ccc(OC(CCn2ccnc2)c2ccc(-c3cn[nH]c3)cc2)cc1 (stereo not drawn) [Example 62, 4-[4-(3-Imidazol-1-yl-1-phenoxy-propyl)-phenyl]-1H-pyrazole] | < 50000 |
| c1ccc(C(c2ccc(-c3cn[nH]c3)cc2)N2CCNCC2)cc1 (stereo not drawn) [Example 64] | < 5000 |
| CNCC(c1ccc(F)cc1)c1ccc(-c2cn[nH]c2)cc1 (stereo not drawn) [Example 65, {2-(4-Fluoro-phenyl)-2-[4-(1H-pyrazol-4-yl)-phenyl]-ethyl}-methyl-amine] | < 1000 |
| COCCCOc1ccc(C2(c3ccc(-c4cn[nH]c4)cc3)CCNCC2)cc1 [Example 68, 4-[4-(3-Methoxy-propoxy)-phenyl]-4-[4-(1H-pyrazol-4-yl)-phenyl]-piperidine] | < 5000 |
| NC(=O)CC(c1ccc(-c2cn[nH]c2)cc1)c1ccc(Cl)c(Cl)c1 (stereo not drawn) [Example 69, 3-(3,4-Dichloro-phenyl)-3-[4-(1H-pyrazol-4-yl)-phenyl]-propionamide] | < 1000 |
| CNCC(c1ccc(Oc2cc(C(N)=O)ccn2)cc1)c1ccc(-c2cn[nH]c2)cc1 (stereo not drawn) [Example 70, 2-(4-{2-Methylamino-1-[4-(1H-pyrazol-4-yl)-phenyl]-ethyl}-phenoxy)-isonicotinamide] | < 50000 |
| CNCC(Oc1ccc(Cl)cc1)c1ccc(-c2cn[nH]c2)cc1 (stereo not drawn) [Example 71, {2-(4-Chloro-phenoxy)-2-[4-(1H-pyrazol-4-yl)-phenyl]-ethyl}-methyl-amine] | < 1000 |
| OCCCNCC(c1ccc(Cl)cc1)c1ccc(-c2cn[nH]c2)cc1 (stereo not drawn) [Example 72] | < 1000 |
| CNCC(c1ccc(-c2cccnc2)cc1)c1ccc(-c2cn[nH]c2)cc1 (stereo not drawn) [Example 75, Methyl-[2-[4-(1H-pyrazol-4-yl)-phenyl]-2-(4-pyridin-3-yl-phenyl)-ethyl]-amine] | < 5000 |
